Assay results reported in paper PMC7587962, “Evaluation of Cytotoxicity and α-Glucosidase Inhibitory Activity of Amide and Polyamino-Derivatives of Lupane Triterpenoids” (Molecules, 2020).

What was measured:
[1] = target: Yeast α-Glucosidase; assay: Yeast α-glucosidase activity assay; format: biochemical, S. cerevisiae; details: pH 6.8, 37 °C, p-nitrophenyl-α-D-glucopyranoside 1 mM; read-out: Yeast α-Glucosidase, IC50 ± SE
Method: Taken together, these considerations prompted us to evaluate a series of lupanes with amide function or polyamine chain 11, 12, 16, 18, and 22–26 for α-glucosidase inhibition. Initially, they were screened against α-glucosidase of S. cerevisiae as an accessible and high-throughput model. Confirmatory experiments were performed on isolated rough endoplasmic reticulum vesicles from rat liver, which contain neutral α-glucosidases I and II in a membrane-bound form.
In a 96-well flat transparent plate, the 0.12 U/mL enzyme solution (EC 3.2.1.20, expressed in S. cerevisiae, Sigma #G0660, St. Louis, MO, USA) was incubated with test compounds in 67 mM PBS (pH 6.8) at 37 °C for 5 min. Then, p-nitrophenyl-α-D-glucopyranoside (Sigma #N1377, St. Louis, MO, USA) was added to 1 mM final concentration and an increase in absorbance was recorded for 15 min at 405 nm wavelength with Infinite M200 PRO microplate reader (Tecan, Austria). Test compounds were dissolved in DMSO and diluted to the desired concentration in 67 mM PBS (pH 6.8) supplemented with 0.01% Tween 80 to avoid aggregation. Final DMSO concentration was <0.25% in sample wells, and it was also introduced in control and blank wells. […] Due to the absence of normal distribution of data, a Mann–Whitney U-test was used to determine statistical significance versus enzyme control using GraphPad Prism 8.0.1.

[2] = tested on: EKVX; parameters: method as in PMID 25405285; details: standard drugs used by NCI as control; cited from earlier work
[3] = tested on: BT-549; parameters: method as in PMID 25405285; details: standard drugs used by NCI as control; cited from earlier work
[4] = tested on: LOX IMVI; parameters: method as in PMID 25405285; details: standard drugs used by NCI as control; cited from earlier work
[5] = tested on: DU-145; parameters: method as in PMID 25405285; details: standard drugs used by NCI as control; cited from earlier work
[6] = tested on: CCRF-CEM; parameters: method as in PMID 25405285; details: standard drugs used by NCI as control; cited from earlier work
[7] = tested on: NCI/ADR-RES; parameters: method as in PMID 25405285; details: standard drugs used by NCI as control; cited from earlier work
[8] = tested on: UO-31; parameters: method as in PMID 25405285; details: standard drugs used by NCI as control; cited from earlier work
[9] = tested on: SW-620; parameters: method as in PMID 25405285; details: standard drugs used by NCI as control; cited from earlier work
[10] = tested on: HL-60(TB); details: standard drugs used by NCI as control; cited from earlier work
[11] = tested on: U251; parameters: method as in PMID 25405285; details: standard drugs used by NCI as control; cited from earlier work
[12] = tested on: OVCAR-4; parameters: method as in PMID 25405285; details: standard drugs used by NCI as control; cited from earlier work
[13] = tested on: IGROV1; parameters: method as in PMID 25405285; details: standard drugs used by NCI as control; cited from earlier work
[14] = tested on: SK-MEL-2; parameters: method as in PMID 25405285; details: standard drugs used by NCI as control; cited from earlier work
[15] = tested on: KM12; parameters: method as in PMID 25405285; details: standard drugs used by NCI as control; cited from earlier work
[16] = tested on: RPMI-8226; parameters: method as in PMID 25405285; details: standard drugs used by NCI as control; cited from earlier work
[17] = tested on: SK-OV-3; parameters: method as in PMID 25405285; details: standard drugs used by NCI as control; cited from earlier work
[18] = tested on: MCF7; parameters: method as in PMID 25405285; details: standard drugs used by NCI as control; cited from earlier work
[19] = tested on: MDA-MB-231/ATCC; parameters: method as in PMID 25405285; details: MDA-MB-31/ATCC; standard drugs used by NCI as control; cited from earlier work
[20] = tested on: NCI-H460; parameters: method as in PMID 25405285; details: standard drugs used by NCI as control; cited from earlier work
[21] = tested on: SN12C; parameters: method as in PMID 25405285; details: standard drugs used by NCI as control; cited from earlier work
[22] = tested on: T-47D; parameters: method as in PMID 25405285; details: standard drugs used by NCI as control; cited from earlier work
[23] = tested on: MOLT-4; parameters: method as in PMID 25405285; details: standard drugs used by NCI as control; cited from earlier work
[24] = tested on: HOP-92; parameters: method as in PMID 25405285; details: standard drugs used by NCI as control; cited from earlier work
[25] = tested on: HCT-116; parameters: method as in PMID 25405285; details: standard drugs used by NCI as control; cited from earlier work
[26] = tested on: RXF 393; parameters: method as in PMID 25405285; details: standard drugs used by NCI as control; cited from earlier work
[27] = tested on: NCI-H226; parameters: method as in PMID 25405285; details: standard drugs used by NCI as control; cited from earlier work
[28] = tested on: HCT-15; parameters: method as in PMID 25405285; details: standard drugs used by NCI as control; cited from earlier work

SMILES: C=C(C)[C@@H]1CC[C@]2(C(=O)NCCNCCNCCN)CC[C@]3(C)[C@H](CC[C@@H]4[C@@]5(C)CCC(=O)C(C)(C)[C@@H]5CC[C@]43C)[C@@H]12 [Compound 11]
- IC50 [1]: 4.84 ± 1.02 µM

SMILES: COc1cccc2c1C(=O)c1c(O)c3c(c(O)c1C2=O)C[C@@](O)(C(=O)CO)C[C@@H]3O[C@H]1C[C@H](N)[C@H](O)[C@H](C)O1 [DRB, doxorubicin]
- GI50 [2]: 410 nM
- GI50 [3]: 230 nM
- GI50 [4]: 70 nM
- GI50 [5]: 110 nM
- GI50 [6]: 80 nM
- GI50 [7]: 7.16 µM
- GI50 [8]: 490 nM
- GI50 [9]: 90 nM
- GI50 [10]: 190 nM
- GI50 [11]: 40 nM
- GI50 [12]: 370 nM
- GI50 [13]: 170 nM
- GI50 [14]: 170 nM
- GI50 [15]: 270 nM
- GI50 [16]: 80 nM
- GI50 [17]: 220 nM
- GI50 [18]: 30 nM
- GI50 [19]: 510 nM
- GI50 [20]: 20 nM
- GI50 [21]: 70 nM
- GI50 [22]: 60 nM
- GI50 [23]: 30 nM
- GI50 [24]: 100 nM
- GI50 [25]: 80 nM
- GI50 [26]: 100 nM
- GI50 [27]: 50 nM
- GI50 [28]: 6.46 µM
